In patent US9585954B2, “Mucosal immunization” (ARIZONA BOARD OF REGENTS FOR AND ON BEHALF OF ARIZONA STATE …, priority 2009, dated 2017):

System: antigen-relevant immune responses to NVCP VLP
Design: species or system experimental animals
Details: in vivo

## CCNCc1nc2c(N)nc3ccccc3c2n1CC(C)(C)O [gardiquimod]
  antigen-relevant immune responses: much more robust immune responses
